From US20250281419A1, “LIPID AMINES” (ModernaTX, Inc., priority 2021, published 2025)

System: HeLa cells
Assay: CFTR protein expression assay in HeLa cells (LNPs of Example 2, immunofluorescence)
Format: cell-based, Human
Conditions: compared to buffer (PBS) control, 5 h transfection, 24 h incubation, N=4 wells
Protocol: Lipid nanoparticles were prepared using ethanol drop nanoprecipitation followed by solvent exchange into suitable aqueous buffer using dialysis. An exemplary lipid nanoparticle composition can be prepared by a process where lipids are dissolved in ethanol at a concentration of 12.5 mM and molar ratios of 33:15:11:39.5:1.5 (e.g., ionizable lipid:SA46:phospholipid:cholesterol:PL1). Lipid to mRNA is maintained at a N/P ratio of 4.9. Then mRNA is diluted with 25 mM sodium acetate (pH 5.0) and combined with the lipid mixture at a volume ratio of 3:1 (aqueous: ethanol). Resulting formulations are dialyzed against 20 mM tris/8% sucrose/70 mM sodium chloride (pH 7.4) at a volume of 300 times that of the primary product using Slide-A-Lyzer dialysis cassettes (Thermo Scientific, Rockford, IL, USA) with a molecular cutoff of 10 KDa for at least 18 h. The first dialysis is carried out at room temperature in a digital orbital shaker (VWR, Radnor, PA, USA) at 85 rpm for 3 h and then dialyzed overnight at 4° C. Formulations are concentrated using Amicon ultra-centrifugal filters (EMD Millipore, Billerica, MA, USA), passed through a 0.22-μm filter and stored at 4° C. until use. Lipid nanoparticle solutions are typically adjusted to specific mRNA concentrations between 0.1 and 1 mg/mL. LNPs were prepared according to Example 2. To evaluate LNP cellular uptake and protein expression in vitro, HeLa cells from ATCC.org (ATCC CCL-2) are used. The cells are cultured in complete Minimum Essential Medium (MEM) and are plated in 96 well Cell Carrier Ultra plate with PDL coated surface (PerkinElmer) prior to running an experiment. Buffer control (PBS) and LNPs encapsulating cystic fibrosis transmembrane conductance regulator (CFTR) mRNA were dosed with MEM media in the absence of serum (N=4 replicate wells). LNP transfected cells were incubated for 5 h, followed by media removal and supplementation with complete MEM media. Cells were further incubated in complete MEM media overnight (24 h). Following 24 hr incubation, the cells were fixed with PFA and processed for immunofluorescence (IF) using an anti-CFTR rabbit monoclonal antibody. Briefly, the cells were permeabilized with 0.5% TX-100 for 10 min, blocked with 3% bovine serum albumin (BSA)+PBST for 1 hr at room temperature, and incubated with primary anti-CFTR monoclonal antibody overnight at 4° C. Following primary antibody incubation, the cells were incubated with Alexa 488 conjugated secondary antibody for 30 min, and stained with DAPI and HCS CellMask Blue stain. Between different incubation steps the cells were either washed with PBS or PBST. Cells were imaged using Opera Phoenix spinning disk confocal microscope (PerkinElmer), and CFTR protein expression was detected using the 488 nm channel. The image analysis was performed in Harmony 4.9, with main analysis output being CFTR intensity per cell. The results shown in Table 3a show fold-change in CFTR signal intensity per cell compared to buffer (PBS) control (nanoparticle composition: IL1:Lipid Amine:DSPC:Chol:PL1). The results shown in Table 3b show fold-change in CFTR signal intensity per cell compared to buffer (PBS) control (nanoparticle composition: IL1:Lipid Amine:DPPC:Chol:PL1).

[1] = LNP IL1:Lipid Amine:DPPC:Chol:PL1 with CFTR mRNA
[2] = LNP IL1:Lipid Amine:DSPC:Chol:PL1 with CFTR mRNA

CC[C@H](CC[C@@H](C)[C@H]1CC[C@H]2[C@@H]3CC=C4C[C@@H](OC(=O)NCC(C)(C)N)CC[C@]4(C)[C@H]3CC[C@]12C)C(C)C.Cl [SA55, (3S,8S,9S,10R,13R,14S,17R)-17-((2R,5R)-5-Ethyl-6-methylheptan-2-yl)-10,13-dimethyl-2,3,4,7,8,9,10,11,12,13,14,15,16,17-tetradecahydro-1H-cyclopenta[a]phenanthren-3-yl (2-amino-2-methylpropyl)carbamate Hydrochloride]
Average fold-change in CFTR signal intensity per cell ± standard deviation [1]: 12.1 ± 0.7 fold-change | Average fold-change in CFTR signal intensity per cell ± standard deviation [2]: 4.9 ± 0.2 fold-change

CC[C@H](CC[C@@H](C)[C@H]1CC[C@H]2[C@@H]3CC=C4C[C@@H](OC(=O)NCCCN(C)C)CC[C@]4(C)[C@H]3CC[C@]12C)C(C)C [SA46, (3S,8S,9S,10R,13R,14S,17R)-17-((2R,5R)-5-Ethyl-6-methylheptan-2-yl)-10,13-dimethyl-2,3,4,7,8,9,10,11,12,13,14,15,16,17-tetradecahydro-1H-cyclopenta[a]phenanthren-3-yl (3-(dimethylamino)propyl)carbamate]
Average fold-change in CFTR signal intensity per cell ± standard deviation [1]: 10.2 ± 0.2 fold-change | Average fold-change in CFTR signal intensity per cell ± standard deviation [2]: 4.7 ± 0.2 fold-change

CC[C@H](CC[C@@H](C)[C@H]1CC[C@H]2[C@@H]3CC=C4C[C@@H](OC(=O)NCCN(CCO)CCO)CC[C@]4(C)[C@H]3CC[C@]12C)C(C)C [SA48, (3S,8S,9S,10R,13R,14S,17R)-17-((2R,5R)-5-Ethyl-6-methylheptan-2-yl)-10,13-dimethyl-2,3,4,7,8,9,10,11,12,13,14,15,16,17-tetradecahydro-1H-cyclopenta[a]phenanthren-3-yl (2-(bis(2-hydroxyethyl)amino)ethyl)carbamate]
Average fold-change in CFTR signal intensity per cell ± standard deviation [1]: 5.3 ± 1.0 fold-change | Average fold-change in CFTR signal intensity per cell ± standard deviation [2]: 4.4 ± 0.3 fold-change

CC[C@H](CC[C@@H](C)[C@H]1CC[C@H]2[C@@H]3CC=C4C[C@@H](OC(=O)NCC5(N(C)C)CC5)CC[C@]4(C)[C@H]3CC[C@]12C)C(C)C [SA54, (3S,8S,9S,10R,13R,14S,17R)-17-((2R,5R)-5-Ethyl-6-methylheptan-2-yl)-10,13-dimethyl-2,3,4,7,8,9,10,11,12,13,14,15,16,17-tetradecahydro-1H-cyclopenta[a]phenanthren-3-yl ((1-(dimethylamino)cyclopropyl)methyl)carbamate]
Average fold-change in CFTR signal intensity per cell ± standard deviation [1]: 1.3 ± 0.1 fold-change | Average fold-change in CFTR signal intensity per cell ± standard deviation [2]: 1.5 ± 0.1 fold-change

CC[C@H](CC[C@@H](C)[C@H]1CC[C@H]2[C@@H]3CC=C4C[C@@H](OC(=O)NCCOCCN(C)C)CC[C@]4(C)[C@H]3CC[C@]12C)C(C)C [SA49, (3S,8S,9S,10R,13R,14S,17R)-17-((2R,5R)-5-Ethyl-6-methylheptan-2-yl)-10,13-dimethyl-2,3,4,7,8,9,10,11,12,13,14,15,16,17-tetradecahydro-1H-cyclopenta[a]phenanthren-3-yl (2-(2-(dimethylamino)ethoxy)ethyl)carbamate]
Average fold-change in CFTR signal intensity per cell ± standard deviation [1]: 1 ± 0.0 fold-change | Average fold-change in CFTR signal intensity per cell ± standard deviation [2]: 1.1 ± 0.0 fold-change

CC[C@H](CC[C@@H](C)[C@H]1CC[C@H]2[C@@H]3CC=C4C[C@@H](OC(=O)NCCCCN(C)C)CC[C@]4(C)[C@H]3CC[C@]12C)C(C)C [SA47, (3S,8S,9S,10R,13R,14S,17R)-17-((2R,5R)-5-Ethyl-6-methylheptan-2-yl)-10,13-dimethyl-2,3,4,7,8,9,10,11,12,13,14,15,16,17-tetradecahydro-1H-cyclopenta[a]phenanthren-3-yl (4-(dimethylamino)butyl)carbamate]
Average fold-change in CFTR signal intensity per cell ± standard deviation [1]: 10.9 ± 0.4 fold-change | Average fold-change in CFTR signal intensity per cell ± standard deviation [2]: 4.6 ± 0.4 fold-change

CC[C@H](CC[C@@H](C)[C@H]1CC[C@H]2[C@@H]3CC=C4C[C@@H](OC(=O)NCC(C)(C)N(C)C)CC[C@]4(C)[C@H]3CC[C@]12C)C(C)C [SA53, (3S,8S,9S,10R,13R,14S,17R)-17-((2R,5R)-5-Ethyl-6-methylheptan-2-yl)-10,13-dimethyl-2,3,4,7,8,9,10,11,12,13,14,15,16,17-tetradecahydro-1H-cyclopenta[a]phenanthren-3-yl (2-(dimethylamino)-2-methylpropyl)carbamate]
Average fold-change in CFTR signal intensity per cell ± standard deviation [1]: 13.0 ± 1.2 fold-change | Average fold-change in CFTR signal intensity per cell ± standard deviation [2]: 4.4 ± 0.8 fold-change
